The NIST ThermoML archive (doi:10.1021/je2010209)

What was measured:
[1] = 101 kPa, Liquid; for speed of sound: Sing-around technique in a fixed-path interferometer; for mass density: Vibrating tube method
[2] = xn = mol fraction of the nth substance listed; settings: 101 kPa, Liquid, x1 = 1; for speed of sound: Sing-around technique in a fixed-path interferometer; for mass density: Vibrating tube method

COCCOCCOCCO [2-[2-(2-methoxyethoxy)ethoxy]ethanol]
[1]
Settings | mass density [kg/m3] | speed of sound [m/s]
288.15 K | 1050.1 | 1470
293.15 K | 1045.75 | 1452
298.15 K | 1041.32 | 1436
303.15 K | 1036.84 | 1421
308.15 K | 1032.27 | 1408
313.15 K | 1027.76 | 1393
318.15 K | 1023.3 | 1376

COCCOCCO [2-(2-methoxyethoxy)ethanol]
[1]
Settings | mass density [kg/m3] | speed of sound [m/s]
288.15 K | 1024.6 | 1451
293.15 K | 1020.2 | 1434
298.15 K | 1015.79 | 1416
303.15 K | 1011.36 | 1399
308.15 K | 1006.92 | 1382
313.15 K | 1002.47 | 1366
318.15 K | 998.009 | 1349

CCCCn1cc[n+](C)c1.F[B-](F)(F)F [1-butyl-3-methylimidazolium tetrafluoroborate] + COCCO
[2]
Settings | mass density [kg/m3] | speed of sound [m/s]
288.15 K | 1206.51 | 1589
293.15 K | 1202.95 | 1577
298.15 K | 1199.39 | 1565
303.15 K | 1195.82 | 1554
308.15 K | 1192.27 | 1542
313.15 K | 1188.72 | 1531
318.15 K | 1185.17 | 1520

CCCCn1cc[n+](C)c1.F[B-](F)(F)F [1-butyl-3-methylimidazolium tetrafluoroborate]
[1]
Settings | mass density [kg/m3] | speed of sound [m/s]
288.15 K | 1206.51 | 1589
293.15 K | 1202.95 | 1577
298.15 K | 1199.39 | 1565
303.15 K | 1195.82 | 1554
308.15 K | 1192.27 | 1542
313.15 K | 1188.72 | 1531
318.15 K | 1185.17 | 1520

COCCO [2-methoxyethan-1-ol]
[1]
Settings | mass density [kg/m3] | speed of sound [m/s]
288.15 K | 969.794 | 1380
293.15 K | 965.063 | 1367
298.15 K | 960.447 | 1351
303.15 K | 955.825 | 1337
308.15 K | 951.214 | 1321
313.15 K | 946.562 | 1304
318.15 K | 941.864 | 1287
